Columns and labels:
[1] = tested on: Staphylococcus aureus (ATCC 6538); experiment: Potentiation Assay (non-evaporative vs evaporative procedure); format: cell-based; conditions: for Evaporated Log 10 Reduction: evaporated in centrifuge 60 minutes; for Non-evaporated Log 10 Reduction: set 60 minutes; for evaporative potentiation of antimicrobial efficacy: evaporative vs non-evaporative procedure, concentrations tested in water
Description: Now referring primarily to Table 5 and FIG. […] The non-evaporative and evaporative procedures included 50 μL of an overnight Staphylococcus aureus (ATCC 6538, ˜10^9 CFU/mL) culture added to each 2 mL sterile plastic vial with a conical bottom and dried without capping in a centrifuge for 30 minutes. One hundred microliters of the solution being tested was added to each vial (as triplicate vials) either let set for 60 minutes (non-evaporative) or evaporated in a centrifuge for 60 minutes (evaporative), with time to evaporate being determined by each DAA mixtures own evaporative characteristic. To the non-evaporated vials, 400 μL Mueller Hinton Broth (MHB) was added to the vial and 100 μL was plated onto Nutrient agar (NA). To the evaporated vials, 500 μL of MHB was added and 100 μL was plated onto NA. Plates were incubated overnight at ˜37° C. and counted (the “Potentiation Assay”).

[2] = Relative evaporation rates; format: physicochemical; conditions: BuAc (reference) = 1.00
Excerpt: Line C represents the change in fluid volume of a 20% (v/v) solution of diacetone alcohol in water caused by evaporation (a particular embodiment of the inventive differential evaporation antimicrobial composition), while line D represents the change in fluid phase concentration of the same 20% (v/v) diacetone alcohol in water occurring during the same fluid volume change. In this case, complete evaporation can occur in approximately 75 time units. Comparatively, the 20% (v/v) diacetone alcohol in water can be engaged with a population of microorganisms for a greater duration of time than the conventional antimicrobial composition without reapplication of an additional amount because evaporation occurs at a slower rate as shown by Table 3.

[3] = neat substance; BuAc (reference) = 1.00; cited from earlier work
[4] = Table 1; cited from earlier work
[5] = flash point; cited from earlier work
[6] = 5% v/v active component, 95% water
[7] = 10% v/v active component, 90% water
[8] = 15% v/v active component, 85% water

SMILES	Evaporated Log 10 Reduction [1, 6]	Non-evaporated Log 10 Reduction [1, 6]	Evaporated Log 10 Reduction [1, 7]	Non-evaporated Log 10 Reduction [1, 7]	Evaporated Log 10 Reduction [1, 8]	Non-evaporated Log 10 Reduction [1, 8]	evaporative potentiation of antimicrobial efficacy [1]	further results
CN(C)CCO [DMEA, 2-dimethylaminoethanol]	XX (denotes a plate where the number of colonies represented less than 10% of the number of colonies counted in the corresponding positive control plate, representing a significant reduction of the number of microorganisms (>3 Log10 reduction).)	---0--- (denotes a plate where the numbers of colonies represented more than 50% of the number of colonies counted in the corresponding positive control plate, representing no significant reduction in the population of viable microorganisms (0 to 1 Log10 reduction).)	XXx (denotes a plate where the number of colonies represented less than 1% of the number of colonies counted in the corresponding positive control plate, representing nearly complete reduction of the number of microorganisms (>4 Log10 reduction).)	---0--- (denotes a plate where the numbers of colonies represented more than 50% of the number of colonies counted in the corresponding positive control plate, representing no significant reduction in the population of viable microorganisms (0 to 1 Log10 reduction).)	XXx (denotes a plate where the number of colonies represented less than 1% of the number of colonies counted in the corresponding positive control plate, representing nearly complete reduction of the number of microorganisms (>4 Log10 reduction).)	---0--- (denotes a plate where the numbers of colonies represented more than 50% of the number of colonies counted in the corresponding positive control plate, representing no significant reduction in the population of viable microorganisms (0 to 1 Log10 reduction).)		
CC(=O)OCCOC(C)=O [EGDA, ethylene glycol diethyl ester]	---0--- (denotes a plate where the numbers of colonies represented more than 50% of the number of colonies counted in the corresponding positive control plate, representing no significant reduction in the population of viable microorganisms (0 to 1 Log10 reduction).)	---0--- (denotes a plate where the numbers of colonies represented more than 50% of the number of colonies counted in the corresponding positive control plate, representing no significant reduction in the population of viable microorganisms (0 to 1 Log10 reduction).)	XX (denotes a plate where the number of colonies represented less than 10% of the number of colonies counted in the corresponding positive control plate, representing a significant reduction of the number of microorganisms (>3 Log10 reduction).)	---0--- (denotes a plate where the numbers of colonies represented more than 50% of the number of colonies counted in the corresponding positive control plate, representing no significant reduction in the population of viable microorganisms (0 to 1 Log10 reduction).)	XX (denotes a plate where the number of colonies represented less than 10% of the number of colonies counted in the corresponding positive control plate, representing a significant reduction of the number of microorganisms (>3 Log10 reduction).)	---0--- (denotes a plate where the numbers of colonies represented more than 50% of the number of colonies counted in the corresponding positive control plate, representing no significant reduction in the population of viable microorganisms (0 to 1 Log10 reduction).)	can be potentiated by evaporation	
CCCCOCCO [EGMBE, ethylene glycol monobutyl ether]							can be potentiated by evaporation	Relative Evaporation Rates (estimated) ([2]; 10% (v/v)): 0.33; Relative Evaporation Rates (estimated) ([2]; 20% (v/v)): 0.30; Relative Evaporation Rates [3]: 0.06
COCCOC(C)=O [EGMEA, ethylene glycol monomethyl ether acetate]	---0--- (denotes a plate where the numbers of colonies represented more than 50% of the number of colonies counted in the corresponding positive control plate, representing no significant reduction in the population of viable microorganisms (0 to 1 Log10 reduction).)	---0--- (denotes a plate where the numbers of colonies represented more than 50% of the number of colonies counted in the corresponding positive control plate, representing no significant reduction in the population of viable microorganisms (0 to 1 Log10 reduction).)	---0--- (denotes a plate where the numbers of colonies represented more than 50% of the number of colonies counted in the corresponding positive control plate, representing no significant reduction in the population of viable microorganisms (0 to 1 Log10 reduction).)	---0--- (denotes a plate where the numbers of colonies represented more than 50% of the number of colonies counted in the corresponding positive control plate, representing no significant reduction in the population of viable microorganisms (0 to 1 Log10 reduction).)	XX (denotes a plate where the number of colonies represented less than 10% of the number of colonies counted in the corresponding positive control plate, representing a significant reduction of the number of microorganisms (>3 Log10 reduction).)	---0--- (denotes a plate where the numbers of colonies represented more than 50% of the number of colonies counted in the corresponding positive control plate, representing no significant reduction in the population of viable microorganisms (0 to 1 Log10 reduction).)	can be potentiated by evaporation	
CCO [Ethanol, reference compound]								Azeotrope with Water % v/v [4]: 94% v/v; Azeotrope with Water % w/w [4]: 95% w/w; FP [5]: 22 °C
CCC(C)=NO [MEKO, 2-butanone oxime]			XXX (denotes a plate in which zero colonies were present, representing complete reduction of the number of microorganisms (>5 Log10 reduction).)	XXX (denotes a plate in which zero colonies were present, representing complete reduction of the number of microorganisms (>5 Log10 reduction).)	XXX (denotes a plate in which zero colonies were present, representing complete reduction of the number of microorganisms (>5 Log10 reduction).)	XXX (denotes a plate in which zero colonies were present, representing complete reduction of the number of microorganisms (>5 Log10 reduction).)	can be potentiated by evaporation	
CO [Methanol]								FP [5]: 11 °C
O [water]								Relative Evaporation Rates [3]: 0.36

— patent publication US9474814B2, “Differential evaporation potentiated disinfectant system” (XY, LLC, priority 2007, dated 2016)
